Experimental data reported in article PMC9959676 (Molecules, 2023).
Like-named read-outs stand apart in the source and are kept apart here.

Key:
Staphylococcus aureus = assay: Antibacterial agar-well diffusion; format: cell-based; settings: sample 100 mg/5 mL in DMSO; ceftriaxone sodium 20 mg/10 mL; 37 °C, 24 h; 6 mm wells
Protocol: (§1) After sterilizing the Mueller Hinton agar medium on plates in an autoclave and allowing it to cool to roughly 45 °C, a 100 µL standard inoculum was aseptically mixed, chilled till 37 °C, and 6 mm wells were formed in the inoculated plates. The volume of 100 μL (100 mg/5 mL in DMSO), ceftriaxone sodium (20 mg/10 mL in DMSO) as a positive control, and pure DMSO as a negative control; 30 μL of the sample solution was incorporated into these wells. These primed plates were incubated at 37 °C for 24 h prior to record inhibitory zones in millimeters.

Pseudomonas aeruginosa = assay: Antibacterial agar-well diffusion; format: cell-based; settings: sample 100 mg/5 mL in DMSO; ceftriaxone sodium 20 mg/10 mL; 37 °C, 24 h; 6 mm wells
Protocol: as §1

Bacillus pumilus = assay: Antibacterial agar-well diffusion; format: cell-based; settings: sample 100 mg/5 mL in DMSO; ceftriaxone sodium 20 mg/10 mL; 37 °C, 24 h; 6 mm wells
Protocol: as §1

Escherichia coli = assay: Antibacterial agar-well diffusion; format: cell-based; settings: sample 100 mg/5 mL in DMSO; ceftriaxone sodium 20 mg/10 mL; 37 °C, 24 h; 6 mm wells
Protocol: as §1

urease = urease (Canavalia ensiformis, UniProt P07374); assay: biochemical; format: biochemical; settings: for folds more urease inhibition than standard Thiourea: relative to Thiourea IC50
Protocol: The activity performed was an improved procedure of the Berthelot assay. […] For 5 min, the mixture was incubated at 37 °C. Each well in a 96-well plate received 40 µL of urea stock solution (20 mM); incubated for 10 min at 37 °C. Afterwards, 115 µL phenol hypochlorite (45 µL phenol + 70 µL alkali) per well was added. Furthermore, all the contents were incubated for 10 min at 37 °C. Absorbance at 625 nm was measured. Using the provided formula, the % of enzyme-inhibition and IC-50 values were computed Inhibition (%age) = [Control − test/100(control)] where Control = [Total enzyme activity minus inhibitor]. The test is the test compounds’ activity

conscious rats = assay: Antihypertensive effect, systolic blood pressure by tail-cuff method in conscious rats; format: in vivo, Wistar rats; settings: 80 mg/kg intraperitoneally, n = 5, Control 108.28 ± 6.87, DMSO 81.10 ± 3.21
Protocol: (§2) Cervical disruption was used to eliminate male Wistar rats weighing 200 g and 300 g. The thoracic aorta segments (3 mm to 5 mm) were slightly pressed and […]. The tissues were placed in an organ bath filled with 10 mL of Krebs-Henseleit solution and kept at 37 °C. Then 95% oxygen and 5% carbon dioxide were passed through the above-mentioned solution. To record organ responses to phenylephrine, (10^−6 M) (Sigma, St. Louis, MO, USA) simulated contractions; isometric transducers and Gemini recorders (Ugo Basile, Varese, Italy) were assembled. Aortic rings were recon traced with phenylephrine (10^−6 M) and subjected to acetylcholine (10^−6 M) for recording endothelium-dependent relaxations (EDR). All synthesized compounds along with the standard (valsartan) were mixed in DMSO; whereas synthesized derivatives of concentration 10^−4 M were added in an organ bath. In conscious rats, systolic blood pressure was recorded by applying the tail-cuff method. Wistar rats of 200 g to 250 g weight were selected and divided into groups of five individuals. The chemicals were injected intraperitoneally at a dosage of 80 mg/kg body weight. The tail-cuff and a piezoelectric pulse sensor were coupled to a blood pressure analyzer and were positioned at the base of the tail (May 9610, Ankara, Turkey).
(§3) All results were presented as the mean of SEM. (n = 5) and test compounds were employed for statistical significance determination.

thoracic aorta segments = assay: Inhibition of phenylephrine-induced contraction on isolated aorta rings; design: species or system male Wistar rats; settings: compounds 10^−4 M in organ bath, phenylephrine 10^−6 M, n = 5; for inhibition at 100 µM: Rattus norvegicus, read-out: %ge inh. of Phenylephrine Cont. (±SEM)
Protocol: as §2, §3

[1] = DPPH free radical scavenging assay; settings: 1.0 mL sample 0.5 mg/mL + 2 mL DPPH 0.2 mg/mL, 30 min, 517 nm
Protocol: The DPPH assay was carried out to estimate the antioxidant potential among all the compounds [29]. Then, 2 mL (0.2 mg/mL in methyl alcohol) of DPPH was mixed with 1.0 mL (0.5 mg/mL in methyl alcohol) of the sample solution in a test tube. All the reaction tubes were covered with aluminum foil and kept aside for 30 min to complete the reaction. The activity was carried out in a dark room. […] A UV-visible spectrophotometer was employed to observe a reduction in the concentration of free radicals at 517 nm. The absorbance of the control (1.0 mL methanol + 2 mL DPPH solution) was also measured. All samples were evaluated in a triplicate manner, and the mean results were recorded. The standard antioxidant (ascorbic acid) was evaluated and set as a reference/standard. The percentage of inhibition (%) was calculated using the following formula in terms of scavenging activity(S):S (%) = [(Ab − Aa)/Ab] × 100(1) where Ab = Absorbance of control; and Aa = Absorbance of the test sample

[2] = urease, pH 7.0, 37 °C, read-out: IC50 ± SEM

urease, sequence (P07374 whole entry, looked up): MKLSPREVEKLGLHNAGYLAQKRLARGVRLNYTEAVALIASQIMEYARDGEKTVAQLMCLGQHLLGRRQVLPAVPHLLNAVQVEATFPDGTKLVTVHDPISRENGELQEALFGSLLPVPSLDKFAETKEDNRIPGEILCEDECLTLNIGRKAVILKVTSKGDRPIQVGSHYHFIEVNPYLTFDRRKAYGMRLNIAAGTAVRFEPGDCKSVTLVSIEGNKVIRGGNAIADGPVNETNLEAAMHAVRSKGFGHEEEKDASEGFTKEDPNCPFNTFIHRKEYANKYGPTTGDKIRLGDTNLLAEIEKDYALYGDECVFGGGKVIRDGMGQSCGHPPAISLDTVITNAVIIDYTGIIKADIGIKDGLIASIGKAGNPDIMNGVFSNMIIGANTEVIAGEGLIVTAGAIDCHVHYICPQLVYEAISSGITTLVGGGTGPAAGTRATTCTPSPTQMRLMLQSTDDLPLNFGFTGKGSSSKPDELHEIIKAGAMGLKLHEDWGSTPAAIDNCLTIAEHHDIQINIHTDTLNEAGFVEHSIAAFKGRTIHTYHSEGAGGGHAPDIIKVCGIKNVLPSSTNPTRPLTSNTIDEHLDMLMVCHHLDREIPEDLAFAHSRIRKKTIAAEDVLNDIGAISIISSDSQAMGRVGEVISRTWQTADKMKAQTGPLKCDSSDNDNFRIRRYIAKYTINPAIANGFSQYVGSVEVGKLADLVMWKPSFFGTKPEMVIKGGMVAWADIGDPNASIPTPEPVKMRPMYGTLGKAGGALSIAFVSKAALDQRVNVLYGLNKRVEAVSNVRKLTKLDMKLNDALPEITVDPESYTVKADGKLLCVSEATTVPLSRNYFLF

SMILES | Zone of Inhibition Gram +ve Bacteria S. aureus Mean ± SEM (Staphylococcus aureus) [millimeters] | Zone of Inhibition Gram -Ve Bacteria P. aeruginosa Mean ± SEM (Pseudomonas aeruginosa) [millimeters] | Zone of Inhibition Gram +ve Bacteria B.pumilus Mean ± SEM (Bacillus pumilus) [millimeters] | Zone of Inhibition Gram -Ve Bacteria E. coli Mean ± SEM (Escherichia coli) [millimeters] | IC50 (urease) [nM] | Mean of Systolic Blood Pressure ± SEM (conscious rats) | inhibition at 100 µM (thoracic aorta segments) [%] | %Age Inhibition ± SEM [1] [%] | IC50 (urease; [2]) [nM] | %ge inh. of Phenylephrine Cont. (±SEM) (thoracic aorta segments) [%] | folds more urease inhibition than standard Thiourea (urease) [folds]
CCCCC(=O)N(Cc1ccc(-c2ccccc2-c2nn[nH]n2)cc1)C(C(=O)O)C(C)C (stereo not drawn) [AV0, 2-(N-((2′-(2H-tetrazole-5-yl)-[1,1′-biphenyl]-4yl)-methyl)-pentanamido)-3-methyl butanoic acid, reference compound] | 12.13 ± 0.72 | 12.43 ± 0.67 | 11.36 ± 0.49 | 10.40 ± 0.69 | 3210 ± 950 | 82.41 ± 4.32 | 65.3 ± 3.6 | 64.6± 0.50 | – | – | –
CCCCC(=O)N(Cc1ccc(-c2ccccc2-c2nn[nH]n2)cc1)C(C(=O)OC(C(=O)c1ccccc1)c1ccccc1)C(C)C (stereo not drawn) [AV1, 2-oxo-1,2-diphenylethyl 2-(N-((2′-(2H-tetrazol-5yl)-[1,1′-biphenyl]-4-yl)methyl)pentanamido)-3methyl butanoate] | 10.83 ± 0.31 | 10.36 ± 0.28 | 10.33 ± 0.40 | 11.06 ± 0.55 | – | 81.78 ± 3.87 | – | 73.9 ± 0.49 | 2560 ± 320 | 67.3 ± 4.7 | –
CCCCC(=O)N(Cc1ccc(-c2ccccc2-c2nn[nH]n2)cc1)C(C(=O)Oc1ccc(C=O)cc1OC)C(C)C (stereo not drawn) [AV2, 4-formyl-2-methoxyphenyl 2(N-((2′-(2H-tetrazole-5-yl)-[1,1′-biphenyl]-4yl)methyl)pentanamido)-3-methyl butanoate] | 12.90 ± 0.81 | 09.33 ± 0.58 | 12.26 ± 0.69 | 11.90 ± 0.26 | – | – | – | 96.0 ± 0.49 | 280 ± 150 | 76.4 ± 6.8 | 4
CCCCC(=O)N(Cc1ccc(-c2ccccc2-c2nnn[nH]2)cc1)C(C(=O)Oc1ccc(N)cc1)C(C)C (stereo not drawn) [AV4, 4-aminophenyl 2-(N-((2′-(2H-tetrazol-5yl) -[1,1′-biphenyl]-4yl)methyl)pentanamido)-3methyl butanoate] | 10.16 ± 0.17 | 10.31 ± 0.47 | 10.46 ± 0.67 | 10.63 ± 0.40 | 3190 ± 950 | 79.56 ± 2.78 | 69.4 ± 5.4 | – | – | – | –
CCCCC(=O)N(Cc1ccc(-c2ccccc2-c2nn[nH]n2)cc1)C(C(=O)Oc1ccc(Cl)cc1Cl)C(C)C (stereo not drawn) [AV5, 2,4-dichlorophenyl 2-(N-((2′-(2H-tetrazol-5yl)-[1,1′-biphenyl]-4 yl)methyl)pentanamido)-3methyl butanoate] | 13.50 ± 0.50 | 09.36 ± 0.85 | 11.23 ± 0.61 | 11.36 ± 0.63 | – | 81.92 ± 5.21 | – | 73.1 ± 0.49 | 1290 ± 120 | 66.2 ± 4.2 | 3
CCCCC(=O)N(Cc1ccc(-c2ccccc2-c2nn[nH]n2)cc1)C(C(=O)Oc1ccc(CC(N)C(=O)O)cc1)C(C)C (stereo not drawn) [AV7, 3-(4-((2-(N-((2′-(2H-tetrazol-5yl)-[1,1′-biphenyl]-4 yl)methyl)pentanamido)-3methylbutanoyl)oxy)phenyl)-2amino-propanoic acid] | 12.10 ± 0.37 | 10.76 ± 0.53 | 11.13 ± 0.80 | 10.96 ± 0.18 | 8590 ± 1120 | 85.61 ± 3.32 | 62.4 ± 2.7 | – | – | – | –
CCCCC(=O)N(Cc1ccc(-c2ccccc2-c2nn[nH]n2)cc1)C(C(=O)Oc1cccc2ccccc12)C(C)C (stereo not drawn) [AV9, naphthalen-1-yl 2-(N-((2′-(2H-tetrazol-5-yl)-[1,1′-biphenyl]-4 yl)methyl)pentanamido)-3methyl butanoate] | 14.40 ± 0.37 | 10.90 ± 0.40 | 12.76 ± 0.84 | 09.73 ± 0.23 | – | – | – | 83.8 ± 0.64 | 2260 ± 1040 | 68.3 ± 4.7 | –
O=C1O[C@H]([C@@H](O)CO)C(O)=C1O [Ascorbic acid, reference compound] | – | – | – | – | – | – | – | 96.4 ± 0.52 | – | – | –
CO/N=C(\C(=O)N[C@@H]1C(=O)N2C(C(=O)O)=C(CSc3nc(=O)c(=O)[nH]n3C)CS[C@H]12)c1csc(N)n1 [Ceftriaxone, ceftriaxone sodium, reference compound] | 24.60 ± 0.51 | 23.33 ± 0.43 | 22.13 ± 0.14 | 21.90 ± 0.18 | – | – | – | – | – | – | –
NC(N)=S [Standard Thiourea, Thiourea, reference compound] | – | – | – | – | – | – | – | – | 4240 ± 130 | – | –
